{"source": "paper PMC7714403", "about": "(JCI Insight, 2020)", "experiment_in_all_cases": "KiNativ, MOLM13 live cells", "format_in_all_cases": "cell-based", "key": {"[1]": {"target": "ACK (Homo sapiens, UniProt Q07912)", "sequence (Q07912 whole entry)": "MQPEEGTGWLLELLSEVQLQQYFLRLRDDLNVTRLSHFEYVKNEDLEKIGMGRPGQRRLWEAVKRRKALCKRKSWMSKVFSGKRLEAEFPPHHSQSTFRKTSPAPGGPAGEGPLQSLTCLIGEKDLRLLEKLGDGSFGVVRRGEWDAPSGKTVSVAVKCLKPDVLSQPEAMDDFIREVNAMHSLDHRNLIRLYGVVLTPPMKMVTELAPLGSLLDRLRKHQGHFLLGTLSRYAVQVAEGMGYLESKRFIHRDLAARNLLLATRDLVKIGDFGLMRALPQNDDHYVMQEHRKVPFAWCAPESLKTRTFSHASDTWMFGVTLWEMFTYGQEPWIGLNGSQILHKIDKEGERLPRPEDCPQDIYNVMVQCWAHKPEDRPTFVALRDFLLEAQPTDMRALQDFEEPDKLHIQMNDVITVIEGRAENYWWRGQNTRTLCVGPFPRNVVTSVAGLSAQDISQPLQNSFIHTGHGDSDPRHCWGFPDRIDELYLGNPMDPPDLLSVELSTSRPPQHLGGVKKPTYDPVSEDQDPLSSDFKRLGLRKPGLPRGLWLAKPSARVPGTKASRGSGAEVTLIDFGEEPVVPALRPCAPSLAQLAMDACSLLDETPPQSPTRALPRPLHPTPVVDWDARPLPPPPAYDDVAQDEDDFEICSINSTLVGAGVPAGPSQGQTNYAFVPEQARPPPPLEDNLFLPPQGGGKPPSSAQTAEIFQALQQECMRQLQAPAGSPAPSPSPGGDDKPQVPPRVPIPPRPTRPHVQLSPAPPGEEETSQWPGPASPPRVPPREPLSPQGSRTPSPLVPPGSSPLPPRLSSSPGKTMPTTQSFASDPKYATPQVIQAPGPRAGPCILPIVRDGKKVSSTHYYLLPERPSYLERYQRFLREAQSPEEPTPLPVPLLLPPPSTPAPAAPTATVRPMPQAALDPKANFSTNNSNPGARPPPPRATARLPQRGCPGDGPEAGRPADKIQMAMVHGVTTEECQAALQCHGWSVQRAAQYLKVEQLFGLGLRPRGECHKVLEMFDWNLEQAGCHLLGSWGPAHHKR", "settings": "MOLM-13; 100 nM, 2 hours; Lys1; read-out: Inhibition vs DMSO", "method": "(§1) Samples were analyzed by KiNativ in situ kinase profiling by ActivX Biosciences."}, "[2]": {"target": "ATR (Homo sapiens, UniProt Q13535)", "settings": "MOLM-13; 100 nM, 2 hours; ATP; read-out: Inhibition vs DMSO", "method": "as §1"}, "[3]": {"target": "T1, MAP2K6 (Homo sapiens, UniProt P52564)", "T1 sequence (P52564 1-334)": "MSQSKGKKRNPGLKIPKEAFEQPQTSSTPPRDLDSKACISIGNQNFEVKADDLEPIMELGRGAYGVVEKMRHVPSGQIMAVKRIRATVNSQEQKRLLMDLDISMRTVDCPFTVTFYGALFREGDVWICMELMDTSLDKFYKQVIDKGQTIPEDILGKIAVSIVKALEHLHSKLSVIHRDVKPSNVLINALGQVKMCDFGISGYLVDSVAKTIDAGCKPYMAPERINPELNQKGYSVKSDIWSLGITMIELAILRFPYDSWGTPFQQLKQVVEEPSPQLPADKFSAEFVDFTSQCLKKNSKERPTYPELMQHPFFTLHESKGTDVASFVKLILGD", "settings": "MOLM-13, 2 h, 100 nM", "method": "as §1"}, "[4]": {"target": "T2, MASTL (Homo sapiens, UniProt Q96GX5)", "T2 sequence (Q96GX5 1-879)": "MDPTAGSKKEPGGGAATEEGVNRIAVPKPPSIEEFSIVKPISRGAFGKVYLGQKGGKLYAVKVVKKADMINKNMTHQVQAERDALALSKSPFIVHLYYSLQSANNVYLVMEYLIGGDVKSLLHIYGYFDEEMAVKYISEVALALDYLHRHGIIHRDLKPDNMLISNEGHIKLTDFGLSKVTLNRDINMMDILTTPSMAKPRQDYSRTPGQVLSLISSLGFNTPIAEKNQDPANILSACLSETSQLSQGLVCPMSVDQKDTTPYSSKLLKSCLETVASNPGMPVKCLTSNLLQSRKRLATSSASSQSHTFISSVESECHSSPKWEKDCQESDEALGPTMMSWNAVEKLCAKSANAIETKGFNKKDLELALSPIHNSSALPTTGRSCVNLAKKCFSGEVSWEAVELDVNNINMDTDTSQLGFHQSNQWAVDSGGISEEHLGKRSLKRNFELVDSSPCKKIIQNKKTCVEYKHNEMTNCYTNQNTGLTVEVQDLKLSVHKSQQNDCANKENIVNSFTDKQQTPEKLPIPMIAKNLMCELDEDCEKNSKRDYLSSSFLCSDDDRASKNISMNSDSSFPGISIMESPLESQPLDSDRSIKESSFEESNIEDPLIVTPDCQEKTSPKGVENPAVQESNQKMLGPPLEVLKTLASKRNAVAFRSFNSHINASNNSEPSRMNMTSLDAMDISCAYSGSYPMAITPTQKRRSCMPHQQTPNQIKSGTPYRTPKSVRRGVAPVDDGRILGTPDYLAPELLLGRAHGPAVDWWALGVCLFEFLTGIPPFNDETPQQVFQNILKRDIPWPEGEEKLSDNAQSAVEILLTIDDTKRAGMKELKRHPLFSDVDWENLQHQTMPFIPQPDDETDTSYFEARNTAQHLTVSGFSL", "settings": "100 nM, 2 hours", "method": "as §1"}, "[5]": {"target": "NEK4 (Homo sapiens, UniProt P51957)", "sequence (P51957 whole entry)": "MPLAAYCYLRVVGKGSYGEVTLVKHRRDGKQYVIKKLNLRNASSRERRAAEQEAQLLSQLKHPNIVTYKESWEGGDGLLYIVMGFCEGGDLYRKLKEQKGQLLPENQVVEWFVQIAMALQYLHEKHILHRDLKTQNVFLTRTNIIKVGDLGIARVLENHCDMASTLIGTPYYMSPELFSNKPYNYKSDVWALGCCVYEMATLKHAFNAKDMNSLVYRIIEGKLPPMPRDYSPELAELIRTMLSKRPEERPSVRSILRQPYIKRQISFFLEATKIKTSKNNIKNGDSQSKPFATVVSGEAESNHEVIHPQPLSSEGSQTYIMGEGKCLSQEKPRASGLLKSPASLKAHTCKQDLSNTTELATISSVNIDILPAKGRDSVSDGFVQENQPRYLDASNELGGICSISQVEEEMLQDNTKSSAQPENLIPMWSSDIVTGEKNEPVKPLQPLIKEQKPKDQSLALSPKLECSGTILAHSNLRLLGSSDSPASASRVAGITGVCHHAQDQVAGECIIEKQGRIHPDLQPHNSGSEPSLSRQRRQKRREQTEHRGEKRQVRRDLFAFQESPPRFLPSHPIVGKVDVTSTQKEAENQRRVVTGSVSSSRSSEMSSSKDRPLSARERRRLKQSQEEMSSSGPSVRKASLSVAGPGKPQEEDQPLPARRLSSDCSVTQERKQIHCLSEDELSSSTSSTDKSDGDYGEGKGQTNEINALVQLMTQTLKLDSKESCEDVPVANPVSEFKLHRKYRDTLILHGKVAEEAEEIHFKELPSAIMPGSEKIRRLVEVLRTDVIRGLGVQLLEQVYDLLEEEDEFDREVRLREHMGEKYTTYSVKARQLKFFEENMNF", "settings": "MOLM-13; 100 nM, 2 hours; Lys2; read-out: Inhibition vs DMSO", "method": "as §1"}, "[6]": {"target": "T3, PAN3 (Homo sapiens, UniProt Q58A45)", "T3 sequence (Q58A45 1-887)": "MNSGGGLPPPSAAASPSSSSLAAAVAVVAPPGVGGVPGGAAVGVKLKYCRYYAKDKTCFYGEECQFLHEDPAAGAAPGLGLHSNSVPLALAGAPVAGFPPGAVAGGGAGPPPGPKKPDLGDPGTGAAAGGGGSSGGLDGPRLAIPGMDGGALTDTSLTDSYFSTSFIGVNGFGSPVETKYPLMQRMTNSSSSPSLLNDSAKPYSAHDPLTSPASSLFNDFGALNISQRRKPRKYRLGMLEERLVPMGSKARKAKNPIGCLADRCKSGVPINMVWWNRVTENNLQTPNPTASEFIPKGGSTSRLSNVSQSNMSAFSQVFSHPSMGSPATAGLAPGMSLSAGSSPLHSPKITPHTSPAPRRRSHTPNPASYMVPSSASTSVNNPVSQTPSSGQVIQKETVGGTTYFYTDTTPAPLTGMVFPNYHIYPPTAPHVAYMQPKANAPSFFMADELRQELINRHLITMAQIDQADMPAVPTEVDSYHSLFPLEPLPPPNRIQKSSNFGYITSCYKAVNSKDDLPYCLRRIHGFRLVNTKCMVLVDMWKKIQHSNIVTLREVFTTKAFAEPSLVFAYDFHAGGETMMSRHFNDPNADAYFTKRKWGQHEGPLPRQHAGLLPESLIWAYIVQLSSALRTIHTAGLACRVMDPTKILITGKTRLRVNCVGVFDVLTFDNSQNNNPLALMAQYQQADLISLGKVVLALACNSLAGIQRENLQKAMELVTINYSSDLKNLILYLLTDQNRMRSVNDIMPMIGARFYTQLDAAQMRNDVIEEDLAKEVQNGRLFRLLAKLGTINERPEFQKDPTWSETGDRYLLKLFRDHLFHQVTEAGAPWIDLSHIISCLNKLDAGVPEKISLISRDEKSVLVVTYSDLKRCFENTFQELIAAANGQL", "settings": "MOLM-13, 2 h, 100 nM, ATP, read-out: Inhibition vs DMSO", "method": "as §1"}, "[7]": {"target": "PFTAIRE1 (Homo sapiens, UniProt O94921)", "sequence (O94921 whole entry)": "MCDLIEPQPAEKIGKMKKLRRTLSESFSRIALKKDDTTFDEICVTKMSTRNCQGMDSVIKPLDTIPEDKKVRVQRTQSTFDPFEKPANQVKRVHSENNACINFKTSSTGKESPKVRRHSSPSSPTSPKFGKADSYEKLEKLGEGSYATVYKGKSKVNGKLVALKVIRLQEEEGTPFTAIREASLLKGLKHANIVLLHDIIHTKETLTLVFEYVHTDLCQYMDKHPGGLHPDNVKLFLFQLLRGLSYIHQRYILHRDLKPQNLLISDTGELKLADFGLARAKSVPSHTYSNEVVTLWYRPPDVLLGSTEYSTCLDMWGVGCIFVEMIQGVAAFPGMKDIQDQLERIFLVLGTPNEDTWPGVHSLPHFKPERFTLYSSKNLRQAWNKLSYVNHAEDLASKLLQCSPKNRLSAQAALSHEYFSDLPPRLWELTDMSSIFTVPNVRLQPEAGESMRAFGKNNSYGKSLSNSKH", "sequence (Q8ND76 whole entry partner)": "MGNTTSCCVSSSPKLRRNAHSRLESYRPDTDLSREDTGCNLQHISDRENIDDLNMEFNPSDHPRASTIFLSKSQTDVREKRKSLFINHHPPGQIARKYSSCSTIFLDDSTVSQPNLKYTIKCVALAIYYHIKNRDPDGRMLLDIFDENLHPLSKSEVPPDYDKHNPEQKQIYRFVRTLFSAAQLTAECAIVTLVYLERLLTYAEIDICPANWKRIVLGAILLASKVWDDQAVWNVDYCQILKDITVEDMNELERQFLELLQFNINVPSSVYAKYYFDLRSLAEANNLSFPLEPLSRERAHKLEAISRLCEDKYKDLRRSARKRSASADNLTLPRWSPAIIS", "settings": "100 nM, 2 hours; Lys1", "method": "as §1"}, "[8]": {"target": "RAF1 (Homo sapiens, UniProt P04049)", "sequence (P04049 whole entry)": "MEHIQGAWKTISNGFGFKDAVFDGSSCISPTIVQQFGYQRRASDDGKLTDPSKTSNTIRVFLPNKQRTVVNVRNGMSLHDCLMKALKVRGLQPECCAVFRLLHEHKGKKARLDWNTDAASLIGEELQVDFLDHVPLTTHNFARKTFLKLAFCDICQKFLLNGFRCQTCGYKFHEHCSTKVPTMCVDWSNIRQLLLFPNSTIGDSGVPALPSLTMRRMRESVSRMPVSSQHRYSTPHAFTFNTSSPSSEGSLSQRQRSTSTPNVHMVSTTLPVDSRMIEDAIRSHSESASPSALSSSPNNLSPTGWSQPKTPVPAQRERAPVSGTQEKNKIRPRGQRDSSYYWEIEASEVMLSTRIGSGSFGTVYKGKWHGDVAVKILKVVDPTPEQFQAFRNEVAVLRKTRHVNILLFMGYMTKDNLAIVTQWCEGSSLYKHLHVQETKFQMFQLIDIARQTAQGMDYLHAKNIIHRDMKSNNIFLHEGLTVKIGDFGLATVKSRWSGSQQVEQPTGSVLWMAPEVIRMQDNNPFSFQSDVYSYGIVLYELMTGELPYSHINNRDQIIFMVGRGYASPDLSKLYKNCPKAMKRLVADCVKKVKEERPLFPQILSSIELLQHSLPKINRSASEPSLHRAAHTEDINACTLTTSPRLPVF", "settings": "MOLM-13; 100 nM, 2 hours; Lys2; read-out: Inhibition vs DMSO", "method": "as §1"}, "[9]": {"target": "SYK (Homo sapiens, UniProt P43405)", "settings": "100 nM, 2 hours", "method": "as §1"}, "[10]": {"target": "eEF2K (Homo sapiens, UniProt O00418)", "sequence (O00418 whole entry)": "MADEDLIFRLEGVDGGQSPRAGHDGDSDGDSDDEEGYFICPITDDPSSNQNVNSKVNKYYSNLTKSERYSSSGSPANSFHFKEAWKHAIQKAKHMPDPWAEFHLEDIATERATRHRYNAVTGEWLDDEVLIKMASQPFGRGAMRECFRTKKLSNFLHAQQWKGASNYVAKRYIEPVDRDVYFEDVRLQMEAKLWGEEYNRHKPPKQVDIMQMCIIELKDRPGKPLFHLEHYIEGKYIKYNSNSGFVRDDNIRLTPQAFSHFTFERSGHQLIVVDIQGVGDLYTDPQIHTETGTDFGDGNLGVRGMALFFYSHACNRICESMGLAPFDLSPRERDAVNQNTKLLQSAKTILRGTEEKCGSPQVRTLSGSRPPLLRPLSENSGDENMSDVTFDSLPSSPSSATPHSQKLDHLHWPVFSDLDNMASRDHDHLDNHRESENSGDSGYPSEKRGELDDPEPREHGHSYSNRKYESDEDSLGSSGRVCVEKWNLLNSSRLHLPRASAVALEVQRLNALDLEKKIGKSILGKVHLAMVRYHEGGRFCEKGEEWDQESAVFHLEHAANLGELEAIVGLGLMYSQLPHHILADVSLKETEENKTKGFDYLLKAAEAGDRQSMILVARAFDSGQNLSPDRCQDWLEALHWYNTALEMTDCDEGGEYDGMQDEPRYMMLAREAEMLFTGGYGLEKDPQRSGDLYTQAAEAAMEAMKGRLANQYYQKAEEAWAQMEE", "settings": "MOLM-13; 100 nM, 2 hours; ATP; read-out: Inhibition vs DMSO", "method": "as §1"}}, "note": "Read-outs that look alike come from different tables or passages of the source.", "data": [{"compound": "CN1CCN(Cc2ccc(Nc3ncc(Cl)c(Nc4ccccc4S(=O)(=O)N(C)C)n3)cc2)CC1", "note": "[TP-0903]", "values": [{"measurement": "inhibition at 0.1 µM", "setting": "[1]", "value": 44.5, "unit": "%"}, {"measurement": "inhibition at 0.1 µM", "setting": "[2]", "value": 7.6, "unit": "%"}, {"measurement": "inhibition at 0.1 µM", "setting": "[3]; Lys1, read-out: Inhibition vs DMSO", "value": -2.4, "unit": "%"}, {"measurement": "inhibition at 0.1 µM", "setting": "[3]; Lys2, read-out: Inhibition vs DMSO", "value": -11.9, "unit": "%"}, {"measurement": "Inhibition vs DMSO", "setting": "[4]; ATP Loop", "value": 10.4, "unit": "%"}, {"measurement": "Inhibition vs DMSO", "setting": "[4]; Lys1", "value": -9.8, "unit": "%"}, {"measurement": "inhibition at 0.1 µM", "setting": "[5]", "value": -23.8, "unit": "%"}, {"measurement": "inhibition at 0.1 µM", "setting": "[6]; IQKSSNFGYITSCYK", "value": 11.2, "unit": "%"}, {"measurement": "inhibition at 0.1 µM", "setting": "[6]; VMDPTKILITGK", "value": -0.5, "unit": "%"}, {"measurement": "Inhibition vs DMSO", "setting": "[7]", "value": 29.5, "unit": "%"}, {"measurement": "inhibition at 0.1 µM", "setting": "[8]", "value": 0.349, "unit": "%"}, {"measurement": "Inhibition vs DMSO", "setting": "[9]; Activation Loop, AQTHGKWPVK", "value": 27.9, "unit": "%"}, {"measurement": "Inhibition vs DMSO", "setting": "[9]; Activation Loop, ISDFGLSKALR", "value": 17.6, "unit": "%"}, {"measurement": "Inhibition vs DMSO", "setting": "[9]; Lys1", "value": 8.1, "unit": "%"}, {"measurement": "inhibition at 0.1 µM", "setting": "[10]", "value": -29.5, "unit": "%"}]}]}
